Here are results for 69 compounds from patent publication US11497751B2, “Modulators of Rho-associated protein kinase” (Redx Pharma PLC, priority 2018, dated 2022).

The target of this assay is T1, N-terminal 6His-tagged ROCK2 catalytic domain 11-552 (Homo sapiens, UniProt O75116).
T1 construct: N-terminal 6His-tagged ROCK2 catalytic domain 11-552; 6His (N); purchased Dundee University, UK; host or cells: baculovirus expression system
The assay is described as follows: ROCK2 binding activity: ROCK2 inhibition, ADP-Glo Kinase Assay. Format: biochemical. As to conditions: 1.25 nM ROCK2, 100 μM long S6 peptide, 20 μM ATP; 1 hour pre-incubation; read-out: ADP-Glo kinase activity assay ROCK2 Category. The procedure: Assay for ROCK2 inhibition was performed using the protein construct N-terminal 6His-tagged ROCK2 catalytic domain 11-552 (Dundee University, UK). Protein was purified from a baculovirus expression system. Long S6 peptide ([…]) was used as substrate. Kinase reactions were carried out in 15 μl volume in a 96-well plate (black, half area) using 1.25 nM constitutively active ROCK2 kinase, 100 μM long S6 peptide, 20 μM ATP and test compound in DMSO (or DMSO only for controls). The final concentration of DMSO was 1%. Assay buffer was 50 mM HEPES pH 7.5 supplemented with 0.2 mM EDTA, 10 mM magnesium acetate, 0.01% Tween-20, 1 mM DTT and 0.01% BSA. Test compounds were pre-incubated with ROCK2 kinase for 1 hour before addition of ATP and long S6 peptide. After incubation for a further 1 hour, the amount of ADP produced was measured using ADP-Glo Kinase Assay (Promega) as per manufacturer's instructions. The luminescence was measured on a PHERAstar FS (BMG Labtech). The concentration of test compound required to inhibit ADP production by 50% (the IC50) was calculated using a four-parameter logistic function with software by Dotmatics.
The category “+” refers to compounds with a ROCK2 IC50 value of >10 μM. The category “++” refers to compounds with a ROCK2 IC50 value of 10 to 3 μM. The category “+++” refers to compounds with a ROCK2 IC50 value of 3 to 0.3 μM. The category “++++” refers to compounds with a ROCK2 IC50 value of <0.3 μM.
(ADP-Glo turns the ADP formed in a reaction into a luminescent signal.)

Structures are written as SMILES. Where only a bound is given, the exact number is not on record here.

T1 sequence (O75116 11-552): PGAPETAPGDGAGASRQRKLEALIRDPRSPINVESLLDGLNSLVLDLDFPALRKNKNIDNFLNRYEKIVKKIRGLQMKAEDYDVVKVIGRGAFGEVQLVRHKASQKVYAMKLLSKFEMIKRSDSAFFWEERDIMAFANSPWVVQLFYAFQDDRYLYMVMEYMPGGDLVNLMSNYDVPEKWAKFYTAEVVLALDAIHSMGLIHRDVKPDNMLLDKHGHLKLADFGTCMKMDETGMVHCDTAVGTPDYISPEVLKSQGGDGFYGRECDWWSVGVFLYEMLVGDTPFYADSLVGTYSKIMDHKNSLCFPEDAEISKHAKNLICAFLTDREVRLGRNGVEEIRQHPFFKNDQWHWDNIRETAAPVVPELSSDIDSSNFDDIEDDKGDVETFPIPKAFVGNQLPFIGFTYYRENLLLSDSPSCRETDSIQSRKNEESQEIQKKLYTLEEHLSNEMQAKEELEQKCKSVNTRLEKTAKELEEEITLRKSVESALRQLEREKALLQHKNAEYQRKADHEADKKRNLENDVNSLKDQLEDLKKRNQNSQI

Turning to `Cn1nc(-c2ccc(N)nc2)nc1Nc1ccc2[nH]ncc2c1Cl` [Example 70], the IC50 lay within 300 to 3000 nM.
With `CNC(=O)Nc1ccc(-c2nc(Nc3ccc4[nH]ncc4c3Cl)n(C)n2)cc1OC` [Example 71], the IC50 was below 300 nM.
Consider `Cn1nc(-c2ccc3c(c2)OCCO3)nc1Nc1ccc2[nH]ncc2c1Cl` [Example 72], for which the IC50 lay within 300 to 3000 nM.
Consider `CC(=O)NCc1ccc(-c2nc(Nc3ccc4[nH]ncc4c3Cl)n(C)n2)cc1` [Example 73], for which the IC50 lay within 300 to 3000 nM.
With `Cn1nc(-c2cccc(CNS(C)(=O)=O)c2)nc1Nc1ccc2[nH]ncc2c1Cl` [Example 75], the IC50 was below 300 nM.
`Cn1nc(-c2cncnc2)nc1Nc1ccc2[nH]ncc2c1Cl` [Example 76]: the IC50 is 300 to 3000 nM.
`COc1ccc(-c2nc(Nc3ccc4[nH]ncc4c3Cl)n(C)n2)cc1OC` [Example 77]: the IC50 is below 300 nM.
As to `Cn1nc(-c2ccc(S(=O)(=O)N3CCOCC3)cc2)nc1Nc1ccc2[nH]ncc2c1Cl` [Example 78], the IC50 fell in the range of 3000 to 10000 nM.
To `Cn1nc(C2=CCCNC2)nc1Nc1ccc2[nH]ncc2c1Cl` [Example 81] belongs 3000 to 10000 nM.
As to `CN(C)C(=O)c1ccc(-c2nc(Nc3ccc4[nH]ncc4c3Cl)n(C)n2)cc1` [Example 82], the IC50 was in the range of 300 to 3000 nM.
As to `CCC(=O)Nc1ccc(-c2nc(Nc3ccc4[nH]ncc4c3Cl)n(C)n2)cc1OC` [Example 83], the IC50 is below 300 nM.
Consider `Cn1nc(C2=CCC(N)CC2)nc1Nc1ccc2[nH]ncc2c1Cl` (stereo not drawn) [Example 84], for which the IC50 is above 10000 nM.
Regarding `COCCOc1cccc(-c2nc(Nc3ccc4[nH]ncc4c3Cl)n(C)n2)c1` [Example 85], the IC50 is below 300 nM.
`COc1ccc(-c2nc(Nc3ccc4[nH]ncc4c3Cl)n(C)n2)cc1Cl` [Example 86]: the IC50 is below 300 nM.
As for `COc1cc(-c2nc(Nc3ccc4[nH]ncc4c3Cl)n(C)n2)ccc1NCC(=O)NC(C)C` [Example 87], the IC50 was below 300 nM.
Regarding `Cn1nc(-c2ccc(CO)cc2)nc1Nc1ccc2[nH]ncc2c1Cl` [Example 88], the IC50 lay in the range of 300 to 3000 nM.
For the compound `Cn1nc(-c2ccccc2O)nc1Nc1ccc2[nH]ncc2c1Cl` [Example 89], the IC50 was below 300 nM.
Consider `CCOC(=O)c1cncc(-c2nc(Nc3ccc4[nH]ncc4c3Cl)n(C)n2)c1` [Example 90], for which the IC50 is below 300 nM.
Consider `Cn1nc(-c2ccc(O)cc2)nc1Nc1ccc2[nH]ncc2c1Cl` [Example 91], for which the IC50 was below 300 nM.
With `Cn1nc(-c2cccnc2)nc1Nc1ccc2[nH]ncc2c1Cl` [Example 93], the IC50 is 3000 to 10000 nM.
Turning to `CN(C)CCNC(=O)c1ccc(-c2nc(Nc3ccc4[nH]ncc4c3Cl)n(C)n2)cc1` [Example 94], the IC50 was below 300 nM.
Take `Cn1nc(-c2ccco2)nc1Nc1ccc2[nH]ncc2c1Cl` [Example 96]: the IC50 was 300 to 3000 nM.
Consider `CN1CCc2cc(-c3nc(Nc4ccc5[nH]ncc5c4Cl)n(C)n3)ccc2C1=O` [Example 97], for which the IC50 was below 300 nM.
Take `Cn1nc(C2=CCOCC2)nc1Nc1ccc2[nH]ncc2c1Cl` [Example 98]: the IC50 is above 10000 nM.
Take `COc1ccc(-c2nc(Nc3ccc4[nH]ncc4c3Cl)n(C)n2)cc1` [Example 99]: the IC50 is below 300 nM.
Next, `COc1cc(-c2nc(Nc3ccc4[nH]ncc4c3Cl)n(C)n2)ccc1O` [Example 101]: below 300 nM; `Cn1nc(-c2ccc(N3CCOCC3)cc2)nc1Nc1ccc2[nH]ncc2c1Cl` [Example 102]: below 300 nM; `CC(C)Oc1ccc(-c2nc(Nc3ccc4[nH]ncc4c3Cl)n(C)n2)cn1` [Example 103]: below 300 nM.
On to `COc1ccc(-c2nc(Nc3ccc4[nH]ncc4c3Cl)n(C)n2)c(F)c1` [Example 104], for which the IC50 is below 300 nM.
Next, `Cn1nc(-c2ccc(CN3CCOCC3)cc2)nc1Nc1ccc2[nH]ncc2c1Cl` [Example 105]: below 300 nM; `Cn1nc(-c2ccc(C(=O)NCC3CCCO3)cc2)nc1Nc1ccc2[nH]ncc2c1Cl` (stereo not drawn) [Example 106]: below 300 nM; `Cc1cc(-c2nc(Nc3ccc4[nH]ncc4c3Cl)n(C)n2)n(C)n1` [Example 107]: 300 to 3000 nM.
On to `Cn1nc(C2=CCCC2)nc1Nc1ccc2[nH]ncc2c1Cl` [Example 108], for which the IC50 was in the range of 300 to 3000 nM.
In the case of `Cc1ccc(-c2nc(Nc3ccc4[nH]ncc4c3Cl)n(C)n2)cn1` [Example 109], the IC50 lay within 3000 to 10000 nM.
For the compound `Cn1nc(-c2cccc(C#N)c2)nc1Nc1ccc2[nH]ncc2c1Cl` [Example 110], the IC50 lay in the range of 300 to 3000 nM.
As to `Cn1nc(-c2cn[nH]c2)nc1Nc1ccc2[nH]ncc2c1Cl` [Example 111], the IC50 lay within 300 to 3000 nM.
`CC(C)n1nccc1-c1nc(Nc2ccc3[nH]ncc3c2Cl)n(C)n1` [Example 112]: the IC50 is 300 to 3000 nM.
Take `COCc1cccc(-c2nc(Nc3ccc4[nH]ncc4c3Cl)n(C)n2)c1` [Example 113]: the IC50 was above 10000 nM.
Next, `COc1ccc(F)c(-c2nc(Nc3ccc4[nH]ncc4c3Cl)n(C)n2)c1` [Example 114]: below 300 nM.
For the compound `COCCn1cc(-c2nc(Nc3ccc4[nH]ncc4c3Cl)n(C)n2)cn1` [Example 115], the IC50 is below 300 nM.
To `Cn1nc(-c2cnn(CCN3CCOCC3)c2)nc1Nc1ccc2[nH]ncc2c1Cl` [Example 117] belongs 300 to 3000 nM.
Next, `COC(=O)c1ccc(-c2nc(Nc3ccc4[nH]ncc4c3Cl)n(C)n2)cc1OC` [Example 118]: below 300 nM.
To `Cn1ccc(-c2nc(Nc3ccc4[nH]ncc4c3Cl)n(C)n2)n1` [Example 119] belongs 3000 to 10000 nM; to `Cn1nc(-c2cccc(N)c2)nc1Nc1ccc2[nH]ncc2c1Cl` [Example 120], 3000 to 10000 nM.
Regarding `Cn1nc(-c2c[nH]c3ccncc23)nc1Nc1ccc2[nH]ncc2c1Cl` [Example 121], the IC50 lay in the range of 3000 to 10000 nM.
For `Cn1nc(-c2ccc(OCCn3ccc(=O)cc3)cc2)nc1Nc1ccc2[nH]ncc2c1Cl` [Example 122], the IC50 was below 300 nM.
For the compound `Cn1nc(-c2ccccc2N)nc1Nc1ccc2[nH]ncc2c1Cl` [Example 123], the IC50 lay in the range of 300 to 3000 nM.
In the case of `CNC(=O)c1ccc(-c2nc(Nc3ccc4[nH]ncc4c3Cl)n(C)n2)cn1` [Example 124], the IC50 was below 300 nM.
As for `Cn1nc(-c2ccc(S(N)(=O)=O)cc2)nc1Nc1ccc2[nH]ncc2c1Cl` [Example 125], the IC50 was below 300 nM.
With `CN(C)c1ccc(-c2nc(Nc3ccc4[nH]ncc4c3Cl)n(C)n2)cn1` [Example 127], the IC50 lay in the range of 300 to 3000 nM.
To `Cn1nc(-c2ccc(CN)c(F)c2)nc1Nc1ccc2[nH]ncc2c1Cl` [Example 128] belongs below 300 nM; to `Cn1nc(-c2cncc(O)c2)nc1Nc1ccc2[nH]ncc2c1Cl` [Example 129], 300 to 3000 nM; to `Cn1nc(-c2cncc(N)c2)nc1Nc1ccc2[nH]ncc2c1Cl` [Example 130], below 300 nM.
Take `Cn1nc(-c2ccc(C(N)=O)cc2)nc1Nc1ccc2[nH]ncc2c1Cl` [Example 131]: the IC50 is below 300 nM.
For `Cn1nc(-c2cccc(N)c2)nc1Nc1ccc2[nH]ncc2c1Cl` [Example 132], the IC50 was in the range of 300 to 3000 nM.
As for `Cn1nc(-c2ccnc(N)c2)nc1Nc1ccc2[nH]ncc2c1Cl` [Example 133], the IC50 was 300 to 3000 nM.
As to `Cn1nccc1-c1nc(Nc2ccc3[nH]ncc3c2Cl)n(C)n1` [Example 134], the IC50 was 300 to 3000 nM.
Take `CNC(=O)c1cccc(-c2nc(Nc3ccc4[nH]ncc4c3Cl)n(C)n2)c1` [Example 135]: the IC50 was below 300 nM.
To `Cn1nc(-c2cccc(OC(F)(F)F)c2)nc1Nc1ccc2[nH]ncc2c1Cl` [Example 136] belongs 300 to 3000 nM; to `Cn1nc(-c2ccc(Oc3ccccc3)cc2)nc1Nc1ccc2[nH]ncc2c1Cl` [Example 137], 300 to 3000 nM; to `Cn1nc(-c2ccc(OC(F)(F)F)cc2)nc1Nc1ccc2[nH]ncc2c1Cl` [Example 138], below 300 nM.
Next, `COc1cc(-c2nc(Nc3ccc4[nH]ncc4c3C)n(C)n2)ccc1OCC(=O)NC1CCNC1` (stereo not drawn) [Example 141]: below 300 nM.
Next, `COc1cc(-c2nc(Nc3cc4cn[nH]c4cc3Cl)n(C)n2)ccc1C(=O)NCC(F)(F)F` [Example 144]: 3000 to 10000 nM; `COc1cc(-c2nc(Nc3ccc4[nH]ncc4c3Cl)n(C(C)C)n2)ccc1OCC(=O)NC(C)C` [Example 145]: below 300 nM.
For the compound `CC(C)NC(=O)COc1ccc(-c2nc(Nc3ccc4[nH]ncc4c3)n(-c3ccccc3F)n2)cc1` [Example 146], the IC50 is below 300 nM.
As to `COc1cc(-c2nnc(Nc3ccc4[nH]ncc4c3)n2-c2ccccn2)ccc1OCC(=O)NC(C)C` [Example 147], the IC50 is below 300 nM.
For `CC(C)NC(=O)COc1ccc(-c2nnc(Nc3ccc4[nH]ncc4c3)n2-c2ccccn2)cc1` [Example 148], the IC50 was below 300 nM.
As for `COc1cc(-c2nc(Nc3ccc4[nH]ncc4c3Cl)n(-c3ccccc3)n2)ccc1OCC(=O)NC1CCNC1` (stereo not drawn) [Example 149], the IC50 is below 300 nM.
For `COc1cc(-c2nc(Nc3ccc4[nH]ncc4c3Cl)n(-c3ccccn3)n2)ccc1OCC(=O)NC(C)C` [Example 151], the IC50 was above 10000 nM.
